# Results reported in patent US20240246937A1 (MERCK SHARP & DOHME LLC, priority 2021, published 2024).
# Molecular target: recombinant IL4I1 (Homo sapiens (Human), UniProt Q96RQ9)
# Experiment: IL4I1 Enzymatic Assay (Amplex Red/HRP coupled fluorescence detection of H2O2)
# Assay type: biochemical
# Details: 240 min; recombinant IL4I1, four-hour pre-incubation with compound
# In short: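 Ten-point, 1:3 compound titrations were fitted by four-parameter sigmoidal regression to give EC50. Resorufin fluorescence (544/590 nm) from Amplex Red/HRP-coupled H2O2 detection was read 120 min after adding 1 mM each aromatic amino acid to 1 nM IL4I1, following a 4 h compound pre-incubation in pH 7.0 Hepes buffer.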
# recombinant IL4I1, sequence (Q96RQ9 22-567): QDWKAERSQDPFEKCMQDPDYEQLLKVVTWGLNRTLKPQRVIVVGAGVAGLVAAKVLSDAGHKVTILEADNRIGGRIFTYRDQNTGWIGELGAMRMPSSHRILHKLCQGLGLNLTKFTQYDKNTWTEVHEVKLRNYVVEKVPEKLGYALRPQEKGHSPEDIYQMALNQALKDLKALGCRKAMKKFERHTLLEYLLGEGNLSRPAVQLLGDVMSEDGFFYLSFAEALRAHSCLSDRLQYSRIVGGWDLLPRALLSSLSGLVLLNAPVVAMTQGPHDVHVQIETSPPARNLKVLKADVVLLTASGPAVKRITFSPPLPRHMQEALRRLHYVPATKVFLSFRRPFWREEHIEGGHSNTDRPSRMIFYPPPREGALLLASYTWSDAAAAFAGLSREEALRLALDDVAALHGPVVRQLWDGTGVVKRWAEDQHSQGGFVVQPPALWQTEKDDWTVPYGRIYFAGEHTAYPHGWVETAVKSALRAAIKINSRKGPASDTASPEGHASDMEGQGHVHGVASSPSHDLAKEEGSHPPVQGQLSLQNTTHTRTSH
row,EC50,Structure (SMILES)
1,37 nM,"O=c1c(=O)n(C2(CF)CC2)ccn1Cc1cc(-c2cccnc2)no1 [Example 246, 1-(1-(fluoromethyl)cyclopropyl)-4-((3-(pyridin-3-yl)isoxazol-5-yl)methyl)-1,4-dihydropyrazine-2,3-dione]"
2,44 nM,"O=c1c(=O)n(C2(CF)CC2)ccn1Cc1ccc(-n2ccnn2)nn1 [Example 247, 1-((6-(1H-1,2,3-triazol-1-yl)pyridazin-3-yl)methyl)-4-(1-(fluoromethyl)cyclopropyl)-1,4-dihydropyrazine-2,3-dione]"
3,38 nM,"O=c1c(=O)n(C23CC(F)(C2)C3)ccn1Cc1ccc(-n2ccnn2)nn1 [Example 248, 1-((6-(1H-1,2,3-triazol-1-yl)pyridazin-3-yl)methyl)-4-(3-fluorobicyclo[1.1.1]pentan-1-yl)-1,4-dihydropyrazine-2,3-dione]"
4,148 nM,"O=C1C(=O)N(C23CC(F)(C2)C3)CCN1Cc1ccc(-n2ccnn2)nn1 [Example 249, 1-((6-(1H-1,2,3-triazol-1-yl)pyridazin-3-yl)methyl)-4-(3-fluorobicyclo[1.1.1]pentan-1-yl)piperazine-2,3-dione]"
5,240 nM,"O=C1C(=O)N(C23CC(F)(C2)C3)CCN1Cc1ccc(-n2cccn2)cn1 [Example 250, 1-((5-(1H-pyrazol-1-yl)pyridin-2-yl)methyl)-4-(3-fluorobicyclo[1.1.1]pentan-1-yl)piperazine-2,3-dione]"
6,100 nM,"O=c1c(=O)n(C2(CF)CC2)ccn1Cc1ccc(-c2ccccn2)cn1 [Example 251, 1-([2,3′-bipyridin]-6′-ylmethyl)-4-(1-(fluoromethyl)cyclopropyl)-1,4-dihydropyrazine-2,3-dione]"
7,38 nM,"O=C1C(=O)N(C23CC(F)(C2)C3)CCN1Cc1cc(-c2ccccn2)on1 [Example 252, 1-(3-fluorobicyclo[1.1.1]pentan-1-yl)-4-((5-(pyridin-2-yl)isoxazol-3-yl)methyl)piperazine-2,3-dione]"
8,45 nM,"O=c1c(=O)n(C2(CF)CC2)ccn1Cc1cc(-c2cccnc2)on1 [Example 253, 1-(1-(fluoromethyl)cyclopropyl)-4-((5-(pyridin-3-yl)isoxazol-3-yl)methyl)-1,4-dihydropyrazine-2,3-dione]"
9,93 nM,"O=C1C(=O)N(C23CC(F)(C2)C3)CCN1Cc1ccc(-c2ccccn2)cn1 [Example 254, 1-([2,3′-bipyridin]-6′-ylmethyl)-4-(3-fluorobicyclo[1.1.1]pentan-1-yl)piperazine-2,3-dione]"
10,47 nM,"O=c1c(=O)n(C23CC(F)(C2)C3)ccn1Cc1ccc(-n2nccn2)nc1 [Example 255, 1-((6-(2H-1,2,3-triazol-2-yl)pyridin-3-yl)methyl)-4-(3-fluorobicyclo[1.1.1]pentan-1-yl)-1,4-dihydropyrazine-2,3-dione]"
11,533 nM,"O=C1C(=O)N(C23CC(F)(C2)C3)CCN1Cc1cc(-c2cccnc2)on1 [Example 256, 1-(3-fluorobicyclo[1.1.1]pentan-1-yl)-4-((5-(pyridin-3-yl)isoxazol-3-yl)methyl)piperazine-2,3-dione]"
12,68 nM,"O=c1c(=O)n(C2(CF)CC2)ccn1Cc1cn(-c2ccccn2)nn1 [Example 257, 1-(1-(fluoromethyl)cyclopropyl)-4-((1-(pyridin-2-yl)-1H-1,2,3-triazol-4-yl)methyl)-1,4-dihydropyrazine-2,3-dione]"
13,78 nM,"N#CC1(n2ccn(Cc3cn(-c4ccccn4)nn3)c(=O)c2=O)CC1 [Example 258, 1-(2,3-dioxo-4-((1-(pyridin-2-yl)-1H-1,2,3-triazol-4-yl)methyl)-3,4-dihydropyrazin-1(2H)-yl)cyclopropane-1-carbonitrile]"
14,78 nM,"O=C1C(=O)N(C23CC(F)(C2)C3)CCN1Cc1cn(-c2ccccn2)nn1 [Example 259, 1-(3-fluorobicyclo[1.1.1]pentan-1-yl)-4-((1-(pyridin-2-yl)-1H-1,2,3-triazol-4-yl)methyl)piperazine-2,3-dione]"
15,38 nM,"O=c1c(=O)n(C23CC(F)(C2)C3)ccn1Cc1cn(-c2ccccn2)nn1 [Example 260, 1-(3-fluorobicyclo[1.1.1]pentan-1-yl)-4-((1-(pyridin-2-yl)-1H-1,2,3-triazol-4-yl)methyl)-1,4-dihydropyrazine-2,3-dione]"
16,178 nM,"O=c1c(=O)n(C2(CF)CC2)ccn1Cc1ccc(-n2ccnn2)cn1 [Example 261, 1-((5-(1H-1,2,3-triazol-1-yl)pyridin-2-yl)methyl)-4-(1-(fluoromethyl)cyclopropyl)-1,4-dihydropyrazine-2,3-dione]"
17,868 nM,"O=c1c(=O)n(C23CC(F)(C2)C3)ccn1Cc1ccc(-n2ccnn2)cn1 [Example 262, 1-((5-(1H-1,2,3-triazol-1-yl)pyridin-2-yl)methyl)-4-(3-fluorobicyclo[1.1.1]pentan-1-yl)-1,4-dihydropyrazine-2,3-dione]"
18,995 nM,"O=C1C(=O)N(C23CC(F)(C2)C3)CCN1Cc1ccc(-n2ccnn2)cn1 [Example 263, 1-((5-(1H-1,2,3-triazol-1-yl)pyridin-2-yl)methyl)-4-(3-fluorobicyclo[1.1.1]pentan-1-yl)piperazine-2,3-dione]"
19,73 nM,"O=c1c(=O)n(C2(CF)CC2)ccn1Cc1ccc(-n2nccn2)nc1 [Example 264, 1-((6-(2H-1,2,3-triazol-2-yl)pyridin-3-yl)methyl)-4-(1-(fluoromethyl)cyclopropyl)-1,4-dihydropyrazine-2,3-dione]"
20,114 nM,"O=C1C(=O)N(C23CC(F)(C2)C3)CCN1Cc1ccc(-n2nccn2)nc1 [Example 265, 1-((6-(2H-1,2,3-triazol-2-yl)pyridin-3-yl)methyl)-4-(3-fluorobicyclo[1.1.1]pentan-1-yl)piperazine-2,3-dione]"
21,4 nM,"O=C1C(=O)N([C@H]2C[C@@H](c3ccccc3)C2)CCN1Cc1ccc(-c2ccccc2)nc1 [Example 266A, cis-1-(3-phenylcyclobutyl)-4-((6-phenylpyridin-3-yl)methyl)piperazine-2,3-dione]"
22,4 nM,"O=C1C(=O)N([C@H]2C[C@H](c3ccccc3)C2)CCN1Cc1ccc(-c2ccccc2)nc1 [Example 266B, trans-1-(3-phenylcyclobutyl)-4-((6-phenylpyridin-3-yl)methyl)piperazine-2,3-dione]"
23,57 nM,"O=C1C(=O)N(C2CCCC2)CCN1Cc1ccc(-c2ccccc2)[n+]([O-])c1 [Example 267, 5-((4-cyclopentyl-2,3-dioxopiperazin-1-yl)methyl)-2-phenylpyridine 1-oxide]"
24,15 nM,"O=C1C(=O)N(C2CCCC2)CCN1CCc1cc2ccc(Cl)cc2nn1 [Example 268, 1-(2-(7-chlorocinnolin-3-yl)ethyl)-4-cyclopentylpiperazine-2,3-dione]"
25,49 nM,"O=C1C(=O)N(C2CCCC2)CCN1CCc1cc2ccccc2nn1 [Example 269, 1-(2-(cinnolin-3-yl)ethyl)-4-cyclopentylpiperazine-2,3-dione]"
26,24 nM,"O=C1C(=O)N(C2CCCC2)CCN1Cc1cnc(-c2ccccc2)nc1 [Example 270, 1-cyclopentyl-4-((2-phenylpyrimidin-5-yl)methyl)piperazine-2,3-dione]"
27,14 nM,"O=C1C(=O)N(C2CCCC2)CCN1Cc1cnc(-c2ccccc2)cn1 [Example 271, 1-cyclopentyl-4-((5-phenylpyrazin-2-yl)methyl)piperazine-2,3-dione]"
